Measurements as given in patent US9809532B2, “Uses of histone acetyltransferase activators” (THE TRUSTEES OF COLUMBIA UNIVERSITY IN THE CITY OF NEW YORK, priority 2011, dated 2017).
Values joined by “and” are separate entries in the source; they are usually repeats but may differ in a detail not shown here. Equal values may be shown once.

Tests used:
[1] = Pharmacokinetics and BBB penetration after i.p. and i.v. administration (LC-MS/MS); format: in vivo, BALB/c mice; details: 20 mg/kg; for Kp: brain/plasma
Procedure: After i.p. and i.v. administration at 20 mg/kg to BALB/c mice, plasma and brain concentrations were determined by LC-MS/MS.

HDAC5FL = HDAC5FL (Homo sapiens, UniProt Q9UQL6); assay: HDAC5FL activity assay (fluorescence)
Chain of HDAC5FL (Q9UQL6 whole entry): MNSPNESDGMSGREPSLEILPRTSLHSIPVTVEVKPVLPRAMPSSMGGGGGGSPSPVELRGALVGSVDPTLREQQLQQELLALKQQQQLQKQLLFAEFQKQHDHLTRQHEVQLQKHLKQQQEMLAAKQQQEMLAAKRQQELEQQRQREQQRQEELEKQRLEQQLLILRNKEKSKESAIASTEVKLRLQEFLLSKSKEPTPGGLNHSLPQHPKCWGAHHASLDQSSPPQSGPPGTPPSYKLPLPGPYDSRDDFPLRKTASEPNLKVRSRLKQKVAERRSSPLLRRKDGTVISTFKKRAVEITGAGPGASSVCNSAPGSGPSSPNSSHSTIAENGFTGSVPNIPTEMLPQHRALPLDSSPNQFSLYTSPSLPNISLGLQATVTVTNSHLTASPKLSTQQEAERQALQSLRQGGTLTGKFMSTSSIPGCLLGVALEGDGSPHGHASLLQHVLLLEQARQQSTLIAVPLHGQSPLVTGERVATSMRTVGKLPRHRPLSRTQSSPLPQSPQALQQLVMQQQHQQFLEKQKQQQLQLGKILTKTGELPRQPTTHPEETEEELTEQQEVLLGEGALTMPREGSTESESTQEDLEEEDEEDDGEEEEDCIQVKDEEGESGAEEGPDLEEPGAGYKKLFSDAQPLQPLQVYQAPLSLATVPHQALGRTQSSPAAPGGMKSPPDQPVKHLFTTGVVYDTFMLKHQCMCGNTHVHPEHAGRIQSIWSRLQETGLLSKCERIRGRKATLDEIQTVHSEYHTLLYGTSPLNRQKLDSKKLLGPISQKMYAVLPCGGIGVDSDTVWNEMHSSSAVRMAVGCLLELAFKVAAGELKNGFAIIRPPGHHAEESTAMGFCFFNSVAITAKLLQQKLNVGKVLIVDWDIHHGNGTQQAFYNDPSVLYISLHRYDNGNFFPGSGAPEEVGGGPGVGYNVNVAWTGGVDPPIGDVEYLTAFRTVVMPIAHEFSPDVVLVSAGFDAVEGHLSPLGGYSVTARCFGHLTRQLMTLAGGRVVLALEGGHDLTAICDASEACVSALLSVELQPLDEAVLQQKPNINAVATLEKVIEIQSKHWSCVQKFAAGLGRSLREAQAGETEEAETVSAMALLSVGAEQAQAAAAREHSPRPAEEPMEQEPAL

human GCN5 = human GCN5 (Homo sapiens, UniProt Q92830); assay: GCN5 activation, in vitro assay; format: biochemical
Chain of human GCN5 (Q92830 whole entry): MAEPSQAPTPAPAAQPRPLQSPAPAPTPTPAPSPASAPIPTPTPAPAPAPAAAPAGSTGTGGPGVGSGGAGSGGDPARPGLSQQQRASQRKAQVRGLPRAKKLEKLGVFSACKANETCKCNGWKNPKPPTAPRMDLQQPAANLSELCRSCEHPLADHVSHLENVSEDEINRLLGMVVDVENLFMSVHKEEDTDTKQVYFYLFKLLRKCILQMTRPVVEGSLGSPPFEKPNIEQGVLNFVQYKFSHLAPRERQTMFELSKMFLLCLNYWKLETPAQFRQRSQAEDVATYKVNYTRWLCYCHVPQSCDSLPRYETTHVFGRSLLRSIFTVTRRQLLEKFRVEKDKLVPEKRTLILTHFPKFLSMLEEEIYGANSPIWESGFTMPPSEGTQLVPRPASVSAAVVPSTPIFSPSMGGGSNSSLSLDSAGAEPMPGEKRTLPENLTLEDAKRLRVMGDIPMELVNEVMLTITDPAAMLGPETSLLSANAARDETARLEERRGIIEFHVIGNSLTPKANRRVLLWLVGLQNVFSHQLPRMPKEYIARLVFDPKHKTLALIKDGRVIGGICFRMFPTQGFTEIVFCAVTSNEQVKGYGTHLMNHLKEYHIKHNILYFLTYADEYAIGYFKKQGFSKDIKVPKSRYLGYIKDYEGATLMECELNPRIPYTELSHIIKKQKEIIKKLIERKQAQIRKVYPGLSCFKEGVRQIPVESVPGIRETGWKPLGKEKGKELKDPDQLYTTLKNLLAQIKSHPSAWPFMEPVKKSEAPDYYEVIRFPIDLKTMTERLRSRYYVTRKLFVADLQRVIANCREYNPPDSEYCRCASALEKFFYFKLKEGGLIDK

Sirtuin 2 = biological target: T1, Sirtuin 2 (Homo sapiens, UniProt Q8IXJ6); assay: Sirtuin 2 activity assay (fluorescence); details: Compound 1 Log [nM] 4.0; Repeat1/Repeat2
T1 sequence (Q8IXJ6 1-389): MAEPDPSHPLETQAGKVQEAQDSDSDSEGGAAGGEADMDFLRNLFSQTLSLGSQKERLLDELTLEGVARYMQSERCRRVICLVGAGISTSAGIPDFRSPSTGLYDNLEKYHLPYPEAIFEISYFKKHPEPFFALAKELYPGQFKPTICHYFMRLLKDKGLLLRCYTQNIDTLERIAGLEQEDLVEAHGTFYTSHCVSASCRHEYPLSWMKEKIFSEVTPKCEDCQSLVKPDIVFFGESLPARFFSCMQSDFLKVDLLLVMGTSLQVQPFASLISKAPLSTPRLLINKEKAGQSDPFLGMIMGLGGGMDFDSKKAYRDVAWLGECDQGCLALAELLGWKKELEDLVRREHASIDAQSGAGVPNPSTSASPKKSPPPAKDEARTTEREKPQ

HDAC3/NCOR2 = HDAC3/NCOR2 (Homo sapiens, UniProt O15379); assay: HDAC3/NCOR2 activity assay (fluorescence); details: Repeat1/Repeat2
Chain of HDAC3/NCOR2 (O15379 whole entry): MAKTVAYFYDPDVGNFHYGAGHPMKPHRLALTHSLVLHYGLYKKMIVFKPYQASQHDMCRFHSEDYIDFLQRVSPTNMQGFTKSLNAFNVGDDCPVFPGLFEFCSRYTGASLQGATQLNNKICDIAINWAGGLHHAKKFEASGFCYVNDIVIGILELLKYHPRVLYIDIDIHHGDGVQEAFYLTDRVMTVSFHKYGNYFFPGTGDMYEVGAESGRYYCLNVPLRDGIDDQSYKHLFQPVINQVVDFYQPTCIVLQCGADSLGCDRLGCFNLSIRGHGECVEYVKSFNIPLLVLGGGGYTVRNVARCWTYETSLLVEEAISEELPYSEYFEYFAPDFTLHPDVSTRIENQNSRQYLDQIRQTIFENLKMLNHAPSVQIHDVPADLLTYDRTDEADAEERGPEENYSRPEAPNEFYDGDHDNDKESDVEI
Chain of HDAC3/NCOR2 (Q9Y618 395-489 partner limits assumed): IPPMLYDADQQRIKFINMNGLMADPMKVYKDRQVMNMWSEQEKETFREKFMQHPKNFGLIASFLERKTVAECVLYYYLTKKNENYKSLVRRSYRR

human PCAF = human PCAF (Homo sapiens, UniProt Q92831); assay: PCAF activation, in vitro assay; format: biochemical
Chain of human PCAF (Q92831 whole entry): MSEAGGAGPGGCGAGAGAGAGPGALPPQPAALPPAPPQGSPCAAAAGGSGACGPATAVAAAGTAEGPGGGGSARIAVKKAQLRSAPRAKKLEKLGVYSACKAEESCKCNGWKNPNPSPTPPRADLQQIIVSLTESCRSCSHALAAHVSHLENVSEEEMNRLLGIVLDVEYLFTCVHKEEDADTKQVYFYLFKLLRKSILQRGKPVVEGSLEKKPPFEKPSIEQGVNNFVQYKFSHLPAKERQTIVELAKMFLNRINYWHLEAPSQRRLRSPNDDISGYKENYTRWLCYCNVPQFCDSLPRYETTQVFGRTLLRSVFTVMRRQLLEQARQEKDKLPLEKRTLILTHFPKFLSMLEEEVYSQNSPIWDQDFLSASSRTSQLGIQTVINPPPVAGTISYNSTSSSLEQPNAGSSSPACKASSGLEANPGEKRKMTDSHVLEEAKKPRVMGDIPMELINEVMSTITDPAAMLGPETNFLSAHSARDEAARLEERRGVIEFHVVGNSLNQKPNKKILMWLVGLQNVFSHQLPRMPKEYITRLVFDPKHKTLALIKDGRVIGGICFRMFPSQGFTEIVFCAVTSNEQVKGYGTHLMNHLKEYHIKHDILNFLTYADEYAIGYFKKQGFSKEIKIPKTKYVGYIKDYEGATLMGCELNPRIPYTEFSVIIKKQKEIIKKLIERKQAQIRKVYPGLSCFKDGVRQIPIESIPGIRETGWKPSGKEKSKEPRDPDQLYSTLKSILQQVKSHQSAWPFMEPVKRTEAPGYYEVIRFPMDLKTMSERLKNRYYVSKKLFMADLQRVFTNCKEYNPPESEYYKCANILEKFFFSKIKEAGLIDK

[2] = system: mouse model of Alzheimer's disease; assay: Memory deficits in a mouse model of Alzheimer's disease; format: in vivo
[3] = system: ACH3 (acetylated histone H3); assay: Western blotting for ACH3 in hippocampus after administration; format: in vivo, mice
Procedure: Two and four hrs after its administration, the mice were sacrificed and hippocampi were extracted. […] Purity was verified through Nuclear Magnetic Resonance (NMR) spectroscopy. […] Hippocampus extraction was made at 3 different time points (0.5, 1 and 2 hrs post treatment). A western blotting for ACH3 was then performed.

[4] = Chronic administration, adverse effects; format: in vivo; details: 45 days, i.p., daily, 20 mg/kg
Oral pharmacokinetics = format: in vivo; details: for Kp: brain/plasma

## CCOc1cccc(OCCN(C)C)c1C(=O)Nc1ccc(Cl)c(C(F)(F)F)c1 [Compound 1]
[1]; BALB/c, mouse, ip, IP, read-out: AUC0-t ratio brain/plasma
  Kp: 8.2
[1]; BALB/c, mouse, ip, IP, read-out: AUC0-∞ ratio brain/plasma
  Kp: 8.1
[1]; BALB/c, mouse, ip, IP, read-out: Cmax ratio brain/plasma
  Kp: 5.8
[1]; BALB/c, mouse, iv, IV, read-out: AUC0-t ratio brain/plasma
  Kp: 10.8
[1]; BALB/c, mouse, iv, IV, read-out: AUC0-∞ ratio brain/plasma
  Kp: 11.2
[1]; BALB/c, mouse, iv, IV, read-out: Cmax ratio brain/plasma
  Kp: 13.1
[1]; BALB/c, mouse, intraperitoneal, brain, read-out: Tmax in the brain (converted)
  Tmax: 15 min
[1]; BALB/c, mouse, ip, i.p., brain and plasma, read-out: elimination half-lives in the brain and plasma
  half-life: ~40 min
[1]; BALB/c, mouse, IP, brain
  Cmax: 4880 ng/g
  MRT: 61.8 min
[1]; BALB/c, mouse, IP, brain, read-out: Tmax
  Tmax: 15 min
[1]; BALB/c, mouse, IP, brain, read-out: t½ (converted)
  half-life: 37.8 min
[1]; BALB/c, mouse, IP, plasma
  AUC(0-inf): 813 ng·h/mL
  Cmax: 843 ng/mL
  MRT: 51 min
[1]; BALB/c, mouse, IP, plasma, read-out: AUC0-t
  AUC0-t: 806 ng·h/mL
[1]; BALB/c, mouse, IP, plasma, read-out: Tmax
  Tmax: 15 min
[1]; BALB/c, mouse, IP, plasma, read-out: t½ (converted)
  half-life: 36 min
[1]; BALB/c, mouse, IV, brain
  Cmax: 27900 ng/g
  MRT: 44.4 min
[1]; BALB/c, mouse, IV, brain, read-out: Tmax
  Tmax: 7.5 min
[1]; BALB/c, mouse, IV, brain, read-out: t½ (converted)
  half-life: 37.8 min
[1]; BALB/c, mouse, IV, plasma
  AUC(0-inf): 2020 ng·h/mL
  Cmax: 2130 ng/mL
  MRT: 50.4 min
[1]; BALB/c, mouse, IV, plasma, read-out: AUC0-t
  AUC0-t: 1970 ng·h/mL
[1]; BALB/c, mouse, IV, plasma, read-out: Tmax
  Tmax: 7.5 min
[1]; BALB/c, mouse, IV, plasma, read-out: t½ (converted)
  half-life: 42 min
[1]; IP, brain
  AUC0-t: 6493 ng·h/g
  AUC0-∞: 6564 ng·h/g
  F: 29.2%
[1]; IP, plasma
  F: 41.0%
[1]; IV, brain
  AUC0-t: 22222 ng·h/g
  AUC0-∞: 22581 ng·h/g
[1]; i.p. and i.v.
  amount in the brain compared with plasma: higher than that in the plasma
HDAC5FL
  IC50: > 200 µM
HDAC5FL; Compound 1 Log [nM] 3.0, Repeat1/Repeat2
  % Activity (HDAC5FL): 99.80%
Human GCN5
  EC50: 49.3 µM and 65.2 µM
Sirtuin 2
  % Activity (Sirtuin 2): 97.71%
HDAC3/NCOR2; Compound 1 Log [nM] 0.5
  % Activity (HDAC3/NCOR2): 102.35% and 89.76%
HDAC3/NCOR2; Compound 1 Log [nM] 1.0
  % Activity (HDAC3/NCOR2): 98.01% and 97.56%
HDAC3/NCOR2; Compound 1 Log [nM] 1.5
  % Activity (HDAC3/NCOR2): 101.44% and 96.12%
HDAC3/NCOR2; Compound 1 Log [nM] 2.0
  % Activity (HDAC3/NCOR2): 102.25% and 94.61%
HDAC3/NCOR2; Compound 1 Log [nM] 2.5
  % Activity (HDAC3/NCOR2): 101.07% and 95.51%
HDAC3/NCOR2; Compound 1 Log [nM] 3.0
  % Activity (HDAC3/NCOR2): 99.62% and 94.38%
HDAC3/NCOR2; Compound 1 Log [nM] 3.5
  % Activity (HDAC3/NCOR2): 97.14% and 94.27%
HDAC3/NCOR2; Compound 1 Log [nM] 4.0
  % Activity (HDAC3/NCOR2): 108.31% and 94.90%
HDAC3/NCOR2; Compound 1 Log [nM] 4.5
  % Activity (HDAC3/NCOR2): 87.66% and 88.97%
HDAC3/NCOR2; Compound 1 Log [nM] 5.3
  % Activity (HDAC3/NCOR2): 89.40% and 102.23%
Human PCAF
  EC50: 29 µM and 18.1 µM
[2]
  memory deficits: ameliorate memory deficits
[3]; 50 mg/kg i.p., 2 and 4 hrs, FIG. 1
  ACH3 in hippocampus: increase ACH3
[3]; 5, 10, 20 mg/Kg i.p. in saline, 0.5, 1, 2 hrs, except 1 hr-10 mg/kg, FIG. 2
  ACH3 levels in hippocampus: dramatically increased ACH3 levels
[4]
  adverse effects on chronic administration: did not have adverse effects
Oral pharmacokinetics; po, read-out: AUC0-t ratio brain/plasma
  Kp: 6.6
Oral pharmacokinetics; po, read-out: AUC0-∞ ratio brain/plasma
  Kp: 6.5
Oral pharmacokinetics; po, read-out: Cmax ratio brain/plasma
  Kp: 5.7
Oral pharmacokinetics; dosed orally, FIG. 17
  amount in the brain compared with plasma: higher than that in the plasma
Oral pharmacokinetics; oral, brain
  AUC0-t: 2149 ng·h/g
  AUC0-∞: 2159 ng·h/g
  Cmax: 1010 ng/g
  MRT: 101 min
  Tmax: 60 min
Oral pharmacokinetics; oral, brain, read-out: t1/2 (converted)
  half-life: 59.4 min
Oral pharmacokinetics; oral, plasma
  AUC(0-inf): 330 ng·h/mL
  Cmax: 177 ng/mL
  MRT: 90 min
  Tmax: 30 min
Oral pharmacokinetics; oral, plasma, read-out: AUC0-t
  AUC0-t: 328 ng·h/mL
Oral pharmacokinetics; oral, plasma, read-out: t1/2 (converted)
  half-life: 63.6 min
Oral pharmacokinetics; po, brain and plasma, read-out: elimination half-lives in the brain and plasma
  half-life: ~60 min
